#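 All cell lines were grown in 96-well plates and treated with compound for 48 hours. At the GI50, growth is halved. Definition used: TGI = concentration required for complete inhibition of growth.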
# Assays:
# Experiment in all cases: growth of human tumour cells (NCI), 48 h
# [1] = test system: TK-10 renal
# [2] = test system: IGROV1 ovarian
# [3] = test system: K-562 leukemia
# [4] = test system: ACHN renal
# [5] = test system: U251 CNS
# [6] = test system: 786-0 renal
# [7] = test system: HL-60(TB) leukemia
# [8] = test system: LOX IMVI melanoma
# [9] = test system: HT29 colon
# [10] = test system: OVCAR-5 ovarian
# [11] = test system: NCI-H522 lung
# [12] = test system: DU-145 prostate
# [13] = test system: MDA-MB-435
# [14] = test system: NCI-H23 lung
# [15] = test system: MOLT-4 leukemia
# [16] = test system: MDA-MB-231 breast
# [17] = test system: OVCAR-8 ovarian
# [18] = test system: SK-MEL-28 melanoma
# [19] = test system: HCC-2998 colon
# [20] = test system: EKVX NSCLC
# [21] = test system: SN12C renal
# [22] = test system: OVCAR-4 ovarian
# [23] = test system: RPMI-8226 leukemia
# [24] = test system: CCRF-CEM leukemia
# [25] = test system: BT-549 breast
# [26] = test system: M14 melanoma
# [27] = test system: HOP-92 NSCLC
# [28] = test system: NCI-H460 lung
# [29] = test system: SR leukemia
# [30] = test system: UACC-62 melanoma
# [31] = test system: HOP-62 NSCLC
# [32] = test system: SF-295 CNS
# [33] = test system: HCT-15 colon
# [34] = test system: RXF 393 renal
# [35] = test system: PC-3 prostate
# [36] = test system: SK-OV-3 ovarian
# [37] = test system: CAKI-1 renal
# [38] = test system: MALME-3M melanoma
# [39] = test system: NCI/ADR-RES ovarian
# [40] = test system: SNB-19 CNS
# [41] = test system: HCT-116 colon
# [42] = test system: HS 578T breast
# [43] = test system: KM12 colon
# [44] = test system: SK-MEL-2 melanoma
# [45] = test system: MCF7 breast
# [46] = test system: UO-31 renal
# [47] = test system: SF-268 CNS
# [48] = test system: SF-539 CNS
# [49] = test system: SW-620 colon
# [50] = test system: NCI-H226 lung
# [51] = test system: A549 NSCLC
# [52] = test system: A498 renal
# [53] = test system: UACC-257 melanoma
# [54] = test system: T-47D breast
compound,measurement,setting,value
CC(C)(C)c1cc(NC(=O)Nc2ccc(-c3cn4c5c(sc4n3)CCc3cn(CCCN4CCCCC4)cc3-5)cc2)no1,GI50,[1],1820 nM
same,TGI,[1],3270 nM
same,GI50,[2],1960 nM
same,TGI,[2],3820 nM
same,GI50,[3],2570 nM
same,TGI,[3],> 100000 nM
same,GI50,[4],1790 nM
same,TGI,[4],3210 nM
same,GI50,[5],1470 nM
same,TGI,[5],2880 nM
same,GI50,[6],1760 nM
same,TGI,[6],3210 nM
same,GI50,[7],1880 nM
same,TGI,[7],6270 nM
same,GI50,[8],1800 nM
same,TGI,[8],3300 nM
same,GI50,[9],1990 nM
same,TGI,[9],3910 nM
same,GI50,[10],1750 nM
same,TGI,[10],3180 nM
same,GI50,[11],1890 nM
same,TGI,[11],3740 nM
same,GI50,[12],1770 nM
same,TGI,[12],3170 nM
same,GI50,[13],1730 nM
same,TGI,[13],3170 nM
same,GI50,[14],1820 nM
same,TGI,[14],3520 nM
same,GI50,[15],1930 nM
same,TGI,[15],6830 nM
same,GI50,[16],1950 nM
same,TGI,[16],3730 nM
same,GI50,[17],2270 nM
same,TGI,[17],5260 nM
same,GI50,[18],1820 nM
same,TGI,[18],3250 nM
same,GI50,[19],1910 nM
same,TGI,[19],3770 nM
same,GI50,[20],1790 nM
same,TGI,[20],3230 nM
same,GI50,[21],1850 nM
same,TGI,[21],3490 nM
same,GI50,[22],1780 nM
same,TGI,[22],3590 nM
same,GI50,[23],2360 nM
same,TGI,[23],6280 nM
same,GI50,[24],2010 nM
same,TGI,[24],6440 nM
same,GI50,[25],1750 nM
same,TGI,[25],3290 nM
same,GI50,[26],1710 nM
same,TGI,[26],3150 nM
same,GI50,[27],1420 nM
same,TGI,[27],2820 nM
same,GI50,[28],1800 nM
same,TGI,[28],3640 nM
same,GI50,[29],2130 nM
same,TGI,[29],6770 nM
same,GI50,[30],> 100000 nM
same,TGI,[30],> 100000 nM
same,GI50,[31],1900 nM
same,TGI,[31],3750 nM
same,GI50,[32],1730 nM
same,TGI,[32],3250 nM
same,GI50,[33],1660 nM
same,TGI,[33],3300 nM
same,GI50,[34],1600 nM
same,TGI,[34],3100 nM
same,GI50,[35],1710 nM
same,TGI,[35],3230 nM
same,GI50,[36],1720 nM
same,TGI,[36],3280 nM
same,GI50,[37],1640 nM
same,TGI,[37],3120 nM
same,GI50,[38],1710 nM
same,TGI,[38],3380 nM
same,GI50,[39],2090 nM
same,TGI,[39],4730 nM
same,GI50,[40],1820 nM
same,TGI,[40],3340 nM
same,GI50,[41],1670 nM
same,TGI,[41],3220 nM
same,GI50,[42],1820 nM
same,TGI,[42],3850 nM
same,GI50,[43],1900 nM
same,TGI,[43],3830 nM
same,GI50,[44],> 100000 nM
same,TGI,[44],> 100000 nM
same,GI50,[45],1750 nM
same,TGI,[45],3810 nM
same,GI50,[46],1600 nM
same,TGI,[46],3000 nM
same,GI50,[47],1810 nM
same,TGI,[47],3890 nM
same,GI50,[48],1740 nM
same,TGI,[48],3180 nM
same,GI50,[49],1800 nM
same,TGI,[49],3360 nM
same,GI50,[50],> 100000 nM
same,TGI,[50],> 100000 nM
same,GI50,[51],1830 nM
same,TGI,[51],3470 nM
same,GI50,[52],1760 nM
same,TGI,[52],3150 nM
same,GI50,[53],1790 nM
same,TGI,[53],3500 nM
same,GI50,[54],1790 nM
same,TGI,[54],3850 nM

# — PubChem BioAssay (NCI)
